Measurements as given in paper PMC7933116 (Cell metabolism, 2020).

Molecular target: MCT1 (Homo sapiens, UniProt P53985)
Assay: BCECF fluorescence lactate transport assay in MCT1-expressing BT20 cells
Assay type: cell-based

MCT1, sequence (P53985 whole entry): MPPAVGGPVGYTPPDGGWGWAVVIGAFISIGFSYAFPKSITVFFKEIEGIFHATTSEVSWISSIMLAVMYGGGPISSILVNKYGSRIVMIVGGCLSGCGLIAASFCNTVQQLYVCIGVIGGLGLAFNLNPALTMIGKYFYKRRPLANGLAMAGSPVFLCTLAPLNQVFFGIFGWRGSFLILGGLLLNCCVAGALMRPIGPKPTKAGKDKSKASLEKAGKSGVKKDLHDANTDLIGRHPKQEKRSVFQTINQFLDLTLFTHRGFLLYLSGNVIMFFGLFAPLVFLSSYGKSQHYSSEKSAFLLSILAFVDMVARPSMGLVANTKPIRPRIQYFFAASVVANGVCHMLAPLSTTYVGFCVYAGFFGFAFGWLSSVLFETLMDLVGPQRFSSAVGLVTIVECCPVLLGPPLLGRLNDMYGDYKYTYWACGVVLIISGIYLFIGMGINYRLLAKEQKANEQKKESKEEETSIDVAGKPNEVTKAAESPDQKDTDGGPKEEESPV

In the case of `CC(C)(OCc1cc(-c2cccc(OC3CC3)c2)n(-c2ccccc2Cl)n1)C(=O)O` [VB124, 2-[[1-(2-chlorophenyl)-5-(3-cyclopropoxyphenyl)-1H-pyrazol-3-yl]methoxy]-2-methylpropanoic acid], the IC50 is reported as 24 µM.
